Reference: BigSolDB 2.1

Cn1cnc([N+](=O)[O-])c1Cl
Conditions	solubility (mole fraction)
in 1,4-dioxane, 283.15 K	0.00714
in 1,4-dioxane, 285.65 K	0.00797
in 1,4-dioxane, 288.15 K	0.00882
in 1,4-dioxane, 290.65 K	0.00986
in 1,4-dioxane, 293.15 K	0.0109
in 1,4-dioxane, 295.65 K	0.0119
in 1,4-dioxane, 298.15 K	0.0129
in 1,4-dioxane, 300.65 K	0.014
in 1,4-dioxane, 303.15 K	0.0151
in 1,4-dioxane, 305.65 K	0.0161
in 1,4-dioxane, 308.15 K	0.0173
in 1,4-dioxane, 310.65 K	0.0186
in 1,4-dioxane, 313.15 K	0.0198
in 1,4-dioxane, 315.65 K	0.021
in 1,4-dioxane, 318.15 K	0.0225
in 2-butanone, 283.15 K	0.0145
in 2-butanone, 285.65 K	0.016
in 2-butanone, 288.15 K	0.0176
in 2-butanone, 290.65 K	0.0194
in 2-butanone, 293.15 K	0.0214
in 2-butanone, 295.65 K	0.0235
in 2-butanone, 298.15 K	0.0259
in 2-butanone, 300.65 K	0.0282
in 2-butanone, 303.15 K	0.0308
in 2-butanone, 305.65 K	0.0335
in 2-butanone, 308.15 K	0.0368
in 2-butanone, 310.65 K	0.04
in 2-butanone, 313.15 K	0.0434
in 2-butanone, 315.65 K	0.0474
in 2-butanone, 318.15 K	0.0512
in NMP, 283.15 K	0.157
in NMP, 285.65 K	0.162
in NMP, 288.15 K	0.168
in NMP, 290.65 K	0.174
in NMP, 293.15 K	0.181
in NMP, 295.65 K	0.188
in NMP, 298.15 K	0.195
in NMP, 300.65 K	0.202
in NMP, 303.15 K	0.209
in NMP, 305.65 K	0.217
in NMP, 308.15 K	0.224
in NMP, 310.65 K	0.233
in NMP, 313.15 K	0.242
in NMP, 315.65 K	0.252
in NMP, 318.15 K	0.261
in acetone, 283.15 K	0.0181
in acetone, 285.65 K	0.0202
in acetone, 288.15 K	0.0222
in acetone, 290.65 K	0.0248
in acetone, 293.15 K	0.027
in acetone, 295.65 K	0.0299
in acetone, 298.15 K	0.0326
in acetone, 300.65 K	0.0358
in acetone, 303.15 K	0.0391
in acetone, 305.65 K	0.0426
in acetone, 308.15 K	0.0465
in acetone, 310.65 K	0.0508
in acetone, 313.15 K	0.0555
in acetone, 315.65 K	0.06
in acetone, 318.15 K	0.0656
in chloroform, 283.15 K	0.0132
in chloroform, 285.65 K	0.0142
in chloroform, 288.15 K	0.0156
in chloroform, 290.65 K	0.017
in chloroform, 293.15 K	0.0185
in chloroform, 295.65 K	0.0201
in chloroform, 298.15 K	0.0219
in chloroform, 300.65 K	0.0236
in chloroform, 303.15 K	0.0255
in chloroform, 305.65 K	0.0276
in chloroform, 308.15 K	0.0298
in chloroform, 310.65 K	0.0322
in chloroform, 313.15 K	0.0345
in chloroform, 315.65 K	0.0372
in chloroform, 318.15 K	0.0399
in ethanol, 283.15 K	0.00218
in ethanol, 285.65 K	0.00235
in ethanol, 288.15 K	0.00259
in ethanol, 290.65 K	0.00283
in ethanol, 293.15 K	0.00313
in ethanol, 295.65 K	0.00347
in ethanol, 298.15 K	0.00381
in ethanol, 300.65 K	0.00417
in ethanol, 303.15 K	0.00456
in ethanol, 305.65 K	0.00497
in ethanol, 308.15 K	0.00539
in ethanol, 310.65 K	0.00587
in ethanol, 313.15 K	0.00643
in ethanol, 315.65 K	0.00705
in ethanol, 318.15 K	0.00784
in ethyl acetate, 283.15 K	0.00846
in ethyl acetate, 285.65 K	0.00911
in ethyl acetate, 288.15 K	0.00983
in ethyl acetate, 290.65 K	0.0108
in ethyl acetate, 293.15 K	0.0118
in ethyl acetate, 295.65 K	0.0128
in ethyl acetate, 298.15 K	0.0139
in ethyl acetate, 300.65 K	0.015
in ethyl acetate, 303.15 K	0.0162
in ethyl acetate, 305.65 K	0.0177
in ethyl acetate, 308.15 K	0.0191
in ethyl acetate, 310.65 K	0.0204
in ethyl acetate, 313.15 K	0.0218
in ethyl acetate, 315.65 K	0.0235
in ethyl acetate, 318.15 K	0.0253
in isopropanol, 283.15 K	0.00108
in isopropanol, 285.65 K	0.00125
in isopropanol, 288.15 K	0.00142
in isopropanol, 290.65 K	0.00158
in isopropanol, 293.15 K	0.00176
in isopropanol, 295.65 K	0.00195
in isopropanol, 298.15 K	0.00219
in isopropanol, 300.65 K	0.00247
in isopropanol, 303.15 K	0.00278
in isopropanol, 305.65 K	0.00313
in isopropanol, 308.15 K	0.00352
in isopropanol, 310.65 K	0.00408
in isopropanol, 313.15 K	0.00468
in isopropanol, 315.65 K	0.00533
in isopropanol, 318.15 K	0.00593
in methanol, 283.15 K	0.0028
in methanol, 285.65 K	0.00316
in methanol, 288.15 K	0.00349
in methanol, 290.65 K	0.00385
in methanol, 293.15 K	0.0042
in methanol, 295.65 K	0.0046
in methanol, 298.15 K	0.00506
in methanol, 300.65 K	0.00554
in methanol, 303.15 K	0.00603
in methanol, 305.65 K	0.00651
in methanol, 308.15 K	0.00699
in methanol, 310.65 K	0.00756
in methanol, 313.15 K	0.00811
in methanol, 315.65 K	0.0087
in methanol, 318.15 K	0.00936
in n-propanol, 283.15 K	0.00152
in n-propanol, 285.65 K	0.00168
in n-propanol, 288.15 K	0.00187
in n-propanol, 290.65 K	0.00208
in n-propanol, 293.15 K	0.00232
in n-propanol, 295.65 K	0.00258
in n-propanol, 298.15 K	0.00282
in n-propanol, 300.65 K	0.00308
in n-propanol, 303.15 K	0.00342
in n-propanol, 305.65 K	0.0038
in n-propanol, 308.15 K	0.00418
in n-propanol, 310.65 K	0.00468
in n-propanol, 313.15 K	0.00522
in n-propanol, 315.65 K	0.00592
in n-propanol, 318.15 K	0.0066
in toluene, 283.15 K	0.00194
in toluene, 285.65 K	0.00208
in toluene, 288.15 K	0.00228
in toluene, 290.65 K	0.00248
in toluene, 293.15 K	0.00272
in toluene, 295.65 K	0.00298
in toluene, 298.15 K	0.00325
in toluene, 300.65 K	0.00358
in toluene, 303.15 K	0.0039
in toluene, 305.65 K	0.00428
in toluene, 308.15 K	0.00468
in toluene, 310.65 K	0.00518
in toluene, 313.15 K	0.00568
in toluene, 315.65 K	0.00622
in toluene, 318.15 K	0.00683
